How the values were obtained:
lambsquarters [1] = assay: Test Example 5: herbicidal effect by foliage application, plastic box (Table 20, symbol O); type: in vivo, lambsquarters (Chenopodium album); settings: foliage application, AAH 320 g/ha, evaluated three weeks after application
Method in brief: (§1)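 Sow seeds spot-wise in sterilized diluvial soil; cover with ~1.5 cm soil. Grow 14 days in greenhouse, 25° C. to 30° C. Spray foliage with emulsion diluted to predetermined amount. Rate effect after 3 weeks.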

wild oat [2] = assay: Test Example 5: herbicidal effect by foliage application, plastic box (Table 20, symbol I); type: in vivo, wild oat (Avena fatua); settings: foliage application, AAH 320 g/ha, evaluated three weeks after application
Method in brief: as §1

southern crabgrass [3] = assay: Test Example 5: herbicidal effect by foliage application, plastic box (Table 20, symbol F); type: in vivo, southern crabgrass (Digitaria ciliaris); settings: foliage application, AAH 320 g/ha, evaluated three weeks after application
Method in brief: as §1

persian speedwell [4] = assay: Test Example 5: herbicidal effect by foliage application, plastic box (Table 20, symbol R); type: in vivo, Persian speedwell (Veronica persica); settings: foliage application, AAH 320 g/ha, evaluated three weeks after application
Method in brief: as §1

Italian ryegrass [5] = assay: Test Example 5: herbicidal effect by foliage application, plastic box (Table 20, symbol K); type: in vivo, Italian ryegrass (Lolium multiflorum); settings: foliage application, AAH 320 g/ha, evaluated three weeks after application
Method in brief: as §1

velvetleaf [6] = assay: Test Example 4: herbicidal effect by soil treatment (Table 19, symbol M); type: in vivo, velvetleaf (Abutilon theophrasti); settings: amount of applied herbicide 320 g/ha
Method in brief: (§2)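 Soil-surface application: an emulsion agent diluted with water to the predetermined dose is sprayed uniformly over seeds lying under roughly 1.5 cm of sterilized diluvial soil. Boxes stay in a greenhouse at 25° C. to 30° C. Three weeks later, each species is graded on previously defined criteria.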

southern crabgrass [7] = assay: Test Example 4: herbicidal effect by soil treatment (Table 19, symbol F); type: in vivo, southern crabgrass (Digitaria ciliaris); settings: amount of applied herbicide 320 g/ha
Method in brief: as §2

redroot pigweed [8] = assay: Test Example 4: herbicidal effect by soil treatment (Table 19, symbol N); type: in vivo, redroot pigweed (Amaranthus retroflexus); settings: amount of applied herbicide 320 g/ha
Method in brief: as §2

windgrass [9] = assay: Test Example 4: herbicidal effect by soil treatment (Table 19, symbol L); type: in vivo, windgrass (Apera spica-venti); settings: amount of applied herbicide 320 g/ha
Method in brief: as §2

velvetleaf [10] = assay: Test Example 5: herbicidal effect by foliage application, plastic box (Table 20, symbol M); type: in vivo, velvetleaf (Abutilon theophrasti); settings: foliage application, AAH 320 g/ha, evaluated three weeks after application
Method in brief: as §1

late watergrass = assay: Test Example 1: herbicidal activity, application before weed generation under submerged conditions (Table 16, symbol A); type: in vivo, late watergrass (Echinochloa oryzicola); settings: 320 g/ha applied herbicide
Method in brief: (§3)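 Emulsion formulation, water-diluted to set dose, was put onto the flooded surface (4 cm depth, alluvial soil) the same day weeds were sown and 2.5-leaf rice transplanted. After 3 weeks at 25-30 °C under glass, each species was rated 0 (≤5% kill) to 5 (≥90% kill).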

redroot pigweed [11] = assay: Test Example 5: herbicidal effect by foliage application, plastic box (Table 20, symbol N); type: in vivo, redroot pigweed (Amaranthus retroflexus); settings: foliage application, AAH 320 g/ha, evaluated three weeks after application
Method in brief: as §1

lambsquarters [12] = assay: Test Example 4: herbicidal effect by soil treatment (Table 19, symbol O); type: in vivo, lambsquarters (Chenopodium album); settings: amount of applied herbicide 320 g/ha
Method in brief: as §2

barnyard grass [13] = assay: Test Example 3: herbicidal effect by foliage application, Wagner pot (Table 18, symbol H); type: in vivo, barnyard grass (Echinochloa crus-galli); settings: amount of applied herbicide 320 g/ha
Method in brief: (§4)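 Plants were sown in alluvial soil held under 0.1–0.5 cm standing water and grown 14 days in a greenhouse at 25–30 °C. An emulsifiable formulation, water-diluted to the set dose, was then sprayed onto the foliage, and effects were scored three weeks later using previously defined criteria.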

green foxtail [14] = assay: Test Example 4: herbicidal effect by soil treatment (Table 19, symbol G); type: in vivo, green foxtail (Setaria viridis); settings: amount of applied herbicide 320 g/ha
Method in brief: as §2

green foxtail [15] = assay: Test Example 5: herbicidal effect by foliage application, plastic box (Table 20, symbol G); type: in vivo, green foxtail (Setaria viridis); settings: foliage application, AAH 320 g/ha, evaluated three weeks after application
Method in brief: as §1

chickweed [16] = assay: Test Example 5: herbicidal effect by foliage application, plastic box (Table 20, symbol P); type: in vivo, common chickweed (Stellaria media); settings: foliage application, AAH 320 g/ha, evaluated three weeks after application
Method in brief: as §1

rice flat sedge = assay: Test Example 3: herbicidal effect by foliage application, Wagner pot (Table 18, symbol E); type: in vivo, rice flat sedge (Cyperus iria); settings: amount of applied herbicide 320 g/ha
Method in brief: as §4

Italian ryegrass [17] = assay: Test Example 4: herbicidal effect by soil treatment (Table 19, symbol K); type: in vivo, Italian ryegrass (Lolium multiflorum); settings: amount of applied herbicide 320 g/ha
Method in brief: as §2

Chinese sprangletop = assay: Test Example 3: herbicidal effect by foliage application, Wagner pot (Table 18, symbol D); type: in vivo, chinese sprangletop (Leptochloa chinensis); settings: amount of applied herbicide 320 g/ha
Method in brief: as §4

blackgrass [18] = assay: Test Example 5: herbicidal effect by foliage application, plastic box (Table 20, symbol J); type: in vivo, blackgrass (Alopecurus myosuroides); settings: foliage application, AAH 320 g/ha, evaluated three weeks after application
Method in brief: as §1

Japanese bulrush = assay: Test Example 1: herbicidal activity, application before weed generation under submerged conditions (Table 16, symbol B); type: in vivo, Japanese bulrush (Schoenoplectus juncoides); settings: 320 g/ha applied herbicide
Method in brief: as §3

oval-leafed pondweed = assay: Test Example 1: herbicidal activity, application before weed generation under submerged conditions (Table 16, symbol C); type: in vivo, oval-leafed pondweed (Monochoria vaginalis); settings: 320 g/ha applied herbicide
Method in brief: as §3

windgrass [19] = assay: Test Example 5: herbicidal effect by foliage application, plastic box (Table 20, symbol L); type: in vivo, windgrass (Apera spica-venti); settings: foliage application, AAH 320 g/ha, evaluated three weeks after application
Method in brief: as §1

persian speedwell [20] = assay: Test Example 4: herbicidal effect by soil treatment (Table 19, symbol R); type: in vivo, Persian speedwell (Veronica persica); settings: amount of applied herbicide 320 g/ha
Method in brief: as §2

barnyard grass [21] = assay: Test Example 4: herbicidal effect by soil treatment (Table 19, symbol H); type: in vivo, barnyard grass (Echinochloa crus-galli); settings: amount of applied herbicide 320 g/ha
Method in brief: as §2

wild oat [22] = assay: Test Example 4: herbicidal effect by soil treatment (Table 19, symbol I); type: in vivo, wild oat (Avena fatua); settings: amount of applied herbicide 320 g/ha
Method in brief: as §2

blackgrass [23] = assay: Test Example 4: herbicidal effect by soil treatment (Table 19, symbol J); type: in vivo, blackgrass (Alopecurus myosuroides); settings: amount of applied herbicide 320 g/ha
Method in brief: as §2

chickweed [24] = assay: Test Example 4: herbicidal effect by soil treatment (Table 19, symbol P); type: in vivo, common chickweed (Stellaria media); settings: amount of applied herbicide 320 g/ha
Method in brief: as §2

barnyard grass [25] = assay: Test Example 5: herbicidal effect by foliage application, plastic box (Table 20, symbol H); type: in vivo, barnyard grass (Echinochloa crus-galli); settings: foliage application, AAH 320 g/ha, evaluated three weeks after application
Method in brief: as §1

## Cc1nn(C)c(=O)c(-c2c(-c3ccc(CSC(C)C)cc3)sc3ccc(F)cc23)c1O [2-321]
Lambsquarters [1]
  O: lambsquarters, herbicidal effect (criteria 0-5): 5 (Herbicidal rate of 90% or more (almost completely withered))
Wild oat [2]
  I: wild oat, herbicidal effect (criteria 0-5): 3 (Herbicidal rate of 40% or more and less than 70%)
Southern crabgrass [3]
  F: southern crabgrass, herbicidal effect (criteria 0-5): 5 (Herbicidal rate of 90% or more (almost completely withered))
Persian speedwell [4]
  R: persian speedwell, herbicidal effect (criteria 0-5): 5 (Herbicidal rate of 90% or more (almost completely withered))
Italian ryegrass [5]
  K: Italian ryegrass, herbicidal effect (criteria 0-5): 4 (Herbicidal rate of 70% or more and less than 90%)
Velvetleaf [6]
  herbicidal effect on M: velvetleaf: 1 (Herbicidal rate of 5% or more and less than 20%)
Southern crabgrass [7]
  herbicidal effect on F: southern crabgrass: 3 (Herbicidal rate of 40% or more and less than 70%)
Redroot pigweed [8]
  herbicidal effect on N: redroot pigweed: 4 (Herbicidal rate of 70% or more and less than 90%)
Windgrass [9]
  herbicidal effect on L: windgrass: 0 (Herbicidal rate of 5% or less (almost no effect))
Velvetleaf [10]
  M: velvetleaf, herbicidal effect (criteria 0-5): 5 (Herbicidal rate of 90% or more (almost completely withered))
Late watergrass
  Herbicidal effect on A: late watergrass (grade 0-5): 3 (Herbicidal rate of 40% or more and less than 70%)
Redroot pigweed [11]
  N: redroot pigweed, herbicidal effect (criteria 0-5): 5 (Herbicidal rate of 90% or more (almost completely withered))
Lambsquarters [12]
  herbicidal effect on O: lambsquarters: 3 (Herbicidal rate of 40% or more and less than 70%)
Barnyard grass [13]
  herbicidal effect on H: barnyard grass: 5 (Herbicidal rate of 90% or more (almost completely withered))
Green foxtail [14]
  herbicidal effect on G: green foxtail: 4 (Herbicidal rate of 70% or more and less than 90%)
Green foxtail [15]
  G: green foxtail, herbicidal effect (criteria 0-5): 5 (Herbicidal rate of 90% or more (almost completely withered))
Chickweed [16]
  P: chickweed, herbicidal effect (criteria 0-5): 5 (Herbicidal rate of 90% or more (almost completely withered))
Rice flat sedge
  herbicidal effect on E: rice flat sedge: 5 (Herbicidal rate of 90% or more (almost completely withered))
Italian ryegrass [17]
  herbicidal effect on K: Italian ryegrass: 0 (Herbicidal rate of 5% or less (almost no effect))
Chinese sprangletop
  herbicidal effect on D: Chinese sprangletop: 3 (Herbicidal rate of 40% or more and less than 70%)
Blackgrass [18]
  J: blackgrass, herbicidal effect (criteria 0-5): 4 (Herbicidal rate of 70% or more and less than 90%)
Japanese bulrush
  Herbicidal effect on B: Japanese bulrush (grade 0-5): 3 (Herbicidal rate of 40% or more and less than 70%)
oval-leafed pondweed
  Herbicidal effect on C: oval-leafed pondweed (grade 0-5): 0 (Herbicidal rate of 5% or less (almost no effect))
Windgrass [19]
  L: windgrass, herbicidal effect (criteria 0-5): 5 (Herbicidal rate of 90% or more (almost completely withered))
Persian speedwell [20]
  herbicidal effect on R: persian speedwell: 5 (Herbicidal rate of 90% or more (almost completely withered))
Barnyard grass [21]
  herbicidal effect on H: barnyard grass: 3 (Herbicidal rate of 40% or more and less than 70%)
Wild oat [22]
  herbicidal effect on I: wild oat: 0 (Herbicidal rate of 5% or less (almost no effect))
Blackgrass [23]
  herbicidal effect on J: blackgrass: 0 (Herbicidal rate of 5% or less (almost no effect))
Chickweed [24]
  herbicidal effect on P: chickweed: 0 (Herbicidal rate of 5% or less (almost no effect))
Barnyard grass [25]
  H: barnyard grass, herbicidal effect (criteria 0-5): 4 (Herbicidal rate of 70% or more and less than 90%)

## Cc1nn(C)c(=O)c(-c2c(-c3ccc(F)cc3F)sc3ccc(F)cc23)c1O [2-342]
Lambsquarters [1]
  O: lambsquarters, herbicidal effect (criteria 0-5): 5 (Herbicidal rate of 90% or more (almost completely withered))
Wild oat [2]
  I: wild oat, herbicidal effect (criteria 0-5): 4 (Herbicidal rate of 70% or more and less than 90%)
Southern crabgrass [3]
  F: southern crabgrass, herbicidal effect (criteria 0-5): 5 (Herbicidal rate of 90% or more (almost completely withered))
Persian speedwell [4]
  R: persian speedwell, herbicidal effect (criteria 0-5): 5 (Herbicidal rate of 90% or more (almost completely withered))
Italian ryegrass [5]
  K: Italian ryegrass, herbicidal effect (criteria 0-5): 5 (Herbicidal rate of 90% or more (almost completely withered))
Velvetleaf [6]
  herbicidal effect on M: velvetleaf: 3 (Herbicidal rate of 40% or more and less than 70%)
Southern crabgrass [7]
  herbicidal effect on F: southern crabgrass: 3 (Herbicidal rate of 40% or more and less than 70%)
Redroot pigweed [8]
  herbicidal effect on N: redroot pigweed: 4 (Herbicidal rate of 70% or more and less than 90%)
Windgrass [9]
  herbicidal effect on L: windgrass: 3 (Herbicidal rate of 40% or more and less than 70%)
Velvetleaf [10]
  M: velvetleaf, herbicidal effect (criteria 0-5): 5 (Herbicidal rate of 90% or more (almost completely withered))
Late watergrass
  Herbicidal effect on A: late watergrass (grade 0-5): 2 (Herbicidal rate of 20% or more and less than 40%)
Redroot pigweed [11]
  N: redroot pigweed, herbicidal effect (criteria 0-5): 5 (Herbicidal rate of 90% or more (almost completely withered))
Lambsquarters [12]
  herbicidal effect on O: lambsquarters: 4 (Herbicidal rate of 70% or more and less than 90%)
Barnyard grass [13]
  herbicidal effect on H: barnyard grass: 5 (Herbicidal rate of 90% or more (almost completely withered))
Green foxtail [14]
  herbicidal effect on G: green foxtail: 4 (Herbicidal rate of 70% or more and less than 90%)
Green foxtail [15]
  G: green foxtail, herbicidal effect (criteria 0-5): 5 (Herbicidal rate of 90% or more (almost completely withered))
Chickweed [16]
  P: chickweed, herbicidal effect (criteria 0-5): 5 (Herbicidal rate of 90% or more (almost completely withered))
Rice flat sedge
  herbicidal effect on E: rice flat sedge: 5 (Herbicidal rate of 90% or more (almost completely withered))
Italian ryegrass [17]
  herbicidal effect on K: Italian ryegrass: 5 (Herbicidal rate of 90% or more (almost completely withered))
Chinese sprangletop
  herbicidal effect on D: Chinese sprangletop: 5 (Herbicidal rate of 90% or more (almost completely withered))
Blackgrass [18]
  J: blackgrass, herbicidal effect (criteria 0-5): 4 (Herbicidal rate of 70% or more and less than 90%)
Japanese bulrush
  Herbicidal effect on B: Japanese bulrush (grade 0-5): 3 (Herbicidal rate of 40% or more and less than 70%)
oval-leafed pondweed
  Herbicidal effect on C: oval-leafed pondweed (grade 0-5): 0 (Herbicidal rate of 5% or less (almost no effect))
Windgrass [19]
  L: windgrass, herbicidal effect (criteria 0-5): 5 (Herbicidal rate of 90% or more (almost completely withered))
Persian speedwell [20]
  herbicidal effect on R: persian speedwell: 3 (Herbicidal rate of 40% or more and less than 70%)
Barnyard grass [21]
  herbicidal effect on H: barnyard grass: 4 (Herbicidal rate of 70% or more and less than 90%)
Wild oat [22]
  herbicidal effect on I: wild oat: 0 (Herbicidal rate of 5% or less (almost no effect))
Blackgrass [23]
  herbicidal effect on J: blackgrass: 3 (Herbicidal rate of 40% or more and less than 70%)
Chickweed [24]
  herbicidal effect on P: chickweed: 3 (Herbicidal rate of 40% or more and less than 70%)
Barnyard grass [25]
  H: barnyard grass, herbicidal effect (criteria 0-5): 5 (Herbicidal rate of 90% or more (almost completely withered))

From US20230085307A1, “PYRIDAZINONE COMPOUND AND HERBICIDE” (NISSAN CHEMICAL CORPORATION, priority 2019, published 2023)
